In patent US8435978B2, “Substituted sulfonamide compounds” (Gruenenthal GmbH, priority 2006, dated 2013):

Assays:
B1R receptor of the rat = biological target: T1, B1R receptor of the rat (Rattus norvegicus, UniProt P97583); assay: Functional study on the bradykinin receptor 1 (B1R), FLIPR Ca2+ assay, rB1R cells; assay type: cell-based; conditions: agonist Des-Arg9-bradykinin 100 nM, % inhibition compared with the maximum achievable inhibition; for inhibition at 10 µM: CHO-K1, test substance 10 μM, read-out: B1R Antagonism, rat [10 μM] % Inhibition; for B1R Antagonism, rat [10 μM] % Inhibition: test substance 10 μM, rB1R CHO K1 cells
T1 construct: host or cells: CHO K1 cells (Chinese hamster ovary), stably transfected
T1 sequence (P97583 1-337): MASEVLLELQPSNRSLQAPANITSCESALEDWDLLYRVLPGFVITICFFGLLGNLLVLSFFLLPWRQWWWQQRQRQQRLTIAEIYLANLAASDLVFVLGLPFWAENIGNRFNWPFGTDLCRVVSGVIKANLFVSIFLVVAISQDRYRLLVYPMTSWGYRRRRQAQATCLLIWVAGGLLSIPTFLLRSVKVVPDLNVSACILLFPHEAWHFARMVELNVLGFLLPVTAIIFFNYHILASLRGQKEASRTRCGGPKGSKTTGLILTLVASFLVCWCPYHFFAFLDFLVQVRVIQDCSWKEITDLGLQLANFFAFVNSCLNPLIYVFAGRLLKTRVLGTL
How it was run: (§1)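 FLIPR Ca2+ assay in recombinant CHO K1 cells (human or rat B1R), Fluo-4 dye; 10 μM compound, 10 min, then EC-level agonist per species (0.5 nM Lys-Des-Arg9-BK human / 100 nM Des-Arg9-BK rat). Output: % inhibition vs maximum.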

human B1R receptor = biological target: T2, human B1R receptor (Homo sapiens, UniProt P46663); assay: Functional study on the bradykinin receptor 1 (B1R), FLIPR Ca2+ assay, hB1R cells; assay type: cell-based; conditions: agonist Lys-Des-Arg9-bradykinin 0.5 nM, % inhibition compared with the maximum achievable inhibition; for inhibition at 10 µM: CHO-K1, test substance 10 μM, read-out: B1R Antagonism, human [10 μM] % Inhibition; for B1R Antagonism, human [10 μM] % Inhibition: test substance 10 μM, hB1R CHO K1 cells
T2 construct: host or cells: CHO K1 cells (Chinese hamster ovary), stably transfected
T2 sequence (P46663 1-353): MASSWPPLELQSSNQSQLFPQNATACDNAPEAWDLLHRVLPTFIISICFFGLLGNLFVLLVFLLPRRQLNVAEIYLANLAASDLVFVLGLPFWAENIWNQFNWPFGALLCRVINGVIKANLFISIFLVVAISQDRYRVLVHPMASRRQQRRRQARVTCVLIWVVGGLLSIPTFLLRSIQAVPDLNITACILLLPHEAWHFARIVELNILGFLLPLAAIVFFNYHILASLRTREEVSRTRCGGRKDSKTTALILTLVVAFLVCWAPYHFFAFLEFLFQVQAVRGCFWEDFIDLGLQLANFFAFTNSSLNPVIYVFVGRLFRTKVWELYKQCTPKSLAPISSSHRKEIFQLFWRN
How it was run: as §1

| inhibition at 10 µM (B1R receptor of the rat) [%] | inhibition at 10 µM (human B1R receptor) [%] | B1R Antagonism, rat [10 μM] % Inhibition (B1R receptor of the rat) [%] | B1R Antagonism, human [10 μM] % Inhibition (human B1R receptor) [%] | SMILES |
| --- | --- | --- | --- | --- |
| 16.4 | 72.6 | – | – | Cc1cc(C)c(S(=O)(=O)N2Cc3ccccc3CC2COCC(=O)NCC2CCCN(Cc3ccccc3)C2)c(C)c1 (stereo not drawn) [Example 41, N-(1-benzyl-piperidin-3-ylmethyl)-2-[2-(2,4,6-trimethyl-phenylsulfonyl)-1,2,3,4-tetrahydro-isoquinolin-3-ylmethoxy]-acetamide] |
| 57.9 | 70.6 | – | – | O=C(COCC1CCCCN1S(=O)(=O)c1ccc(Cl)c(Cl)c1)N1CCN(CCN2CCCCC2)CC1 (stereo not drawn) [Example 42, 2-((1-(3,4-dichlorophenylsulfonyl)piperidin-2-yl)methoxy)-1-(4-(2-(piperidin-1-yl)-ethyl)piperazin-1-yl)ethanone] |
| 0 | 69.6 | – | – | O=C(COCC1CCCN1S(=O)(=O)c1ccc(Cl)c(Cl)c1)N1CCN(Cc2ccc3c(c2)OCO3)CC1 (stereo not drawn) [Example 44, 1-(4-benzo[1,3]dioxol-5-ylmethyl-piperazin-1-yl)-2-[1-(3,4-dichloro-phenylsulfonyl)-pyrrolidin-2-ylmethoxy]-ethanone] |
| 92.4 | 69.1 | – | – | CN1CCN(Cc2ccc(CNC(=O)COCC3CCCN3S(=O)(=O)c3c(Cl)cc(Cl)cc3Cl)cc2)CC1 (stereo not drawn) [Example 45, N-[4-(4-methyl-piperazin-1-ylmethyl)-benzyl]-2-[1-(2,4,6-trichloro-phenylsulfonyl)-pyrrolidin-2-ylmethoxy]-acetamide] |
| 0 | 68.2 | – | – | COCCN1CCN(C(=O)COCC2CCCCN2S(=O)(=O)c2ccc(Cl)c(Cl)c2)CC1 (stereo not drawn) [Example 46, 2-[1-(3,4-dichloro-phenylsulfonyl)-piperidin-2-ylmethoxy]-1-[4-(2-methoxy-ethyl)-piperazin-1-yl]-ethanone] |
| 92.3 | 65.9 | – | – | O=C(COCC1CCCN1S(=O)(=O)c1c(Cl)cc(Cl)cc1Cl)NCc1ccc(CN2CCOCC2)cc1 (stereo not drawn) [Example 49, N-(4-morpholin-4-ylmethyl-benzyl)-2-[1-(2,4,6-trichloro-phenylsulfonyl)-pyrrolidin-2-ylmethoxy]-acetamide] |
| 0 | 64.8 | – | – | COc1cccc(N2CCN(C(=O)COCC3CCCCN3S(=O)(=O)c3ccc(Cl)c(Cl)c3)CC2)c1 (stereo not drawn) [Example 53, 2-[1-(3,4-dichloro-phenylsulfonyl)-piperidin-2-ylmethoxy]-1-[4-(3-methoxy-phenyl)-piperazin-1-yl]-ethanone] |
| 0 | 63.8 | – | – | O=C(COCC1CCCN1S(=O)(=O)c1ccc(Cl)c(Cl)c1)N1CCN(CC2CCCCC2)CC1 (stereo not drawn) [Example 54, 1-(4-cyclohexylmethyl-piperazin-1-yl)-2-[1-(3,4-dichloro-phenylsulfonyl)-pyrrolidin-2-ylmethoxy]-ethanone] |
| 88.8 | 63.2 | – | – | COc1cc(C)c(S(=O)(=O)N2CCCC2COCC(=O)NCc2ccc(CN3CCOCC3)cc2)c(C)c1 (stereo not drawn) [Example 55, 2-[1-(4-methoxy-2,6-dimethyl-phenylsulfonyl)-pyrrolidin-2-ylmethoxy]-N-(4-morpholin-4-ylmethyl-benzyl)-acetamide] |
| 0 | 62.7 | – | – | O=C(COCC1CCCCN1S(=O)(=O)c1ccc(Cl)c(Cl)c1)N1CCN(c2ccccc2)CC1 (stereo not drawn) [Example 56, 2-[1-(3,4-dichloro-phenylsulfonyl)-piperidin-2-ylmethoxy]-1-(4-phenyl-piperazin-1-yl)-ethanone] |
| 0 | 61.5 | – | – | O=C(COCC1CCCCN1S(=O)(=O)c1ccc(Cl)c(Cl)c1)N1CCN(c2ccc(F)cc2)CC1 (stereo not drawn) [Example 59, 2-[1-(3,4-dichloro-phenylsulfonyl)-piperidin-2-ylmethoxy]-1-[4-(4-fluoro-phenyl)-piperazin-1-yl]-ethanone] |
| 109 | 59.9 | – | – | COc1cc(C)c(S(=O)(=O)N2CCCC2COCC(=O)NCc2ccc(N3CCCCC3)cc2)c(C)c1 (stereo not drawn) [Example 60, 2-[1-(4-methoxy-2,6-dimethyl-phenylsulfonyl)-pyrrolidin-2-ylmethoxy]-N-(4-piperidin-1-yl-benzyl)-acetamide] |
| – | – | 30.54 | 59.7 | O=C(COCC1CCCCN1S(=O)(=O)c1cccc2ccccc12)NCc1ccc(CN2CCOCC2)cc1 (stereo not drawn) [Example 61, N-(4-morpholin-4-ylmethyl-benzyl)-2-[1-(naphthyl-1-sulfonyl)-piperidin-2-ylmethoxy]-acetamide] |

The remaining lines, values behind:

| SMILES | inhibition at 10 µM (B1R receptor of the rat) [%] | inhibition at 10 µM (human B1R receptor) [%] | B1R Antagonism, rat [10 μM] % Inhibition (B1R receptor of the rat) [%] | B1R Antagonism, human [10 μM] % Inhibition (human B1R receptor) [%] |
| --- | --- | --- | --- | --- |
| CCN(CC)CCN(CCN(CC)CC)C(=O)COCC1Cc2ccccc2CN1S(=O)(=O)c1ccc(Cl)c(Cl)c1 (stereo not drawn) [Example 43, 2-[2-(3,4-dichloro-phenylsulfonyl)-1,2,3,4-tetrahydro-isoquinolin-3-ylmethoxy]-N,N-bis-(2-diethylamino-ethyl)-acetamide] | 24.2 | 69.9 | – | – |
| CN(C(=O)COCC1CCCCN1S(=O)(=O)c1cccc2ccccc12)C(CN1CCOCC1)c1ccccc1 (stereo not drawn) [Example 47, N-methyl-N-(2-morpholin-4-yl-1-phenyl-ethyl)-2-[1-(naphthyl-1-sulfonyl)-piperidin-2-ylmethoxy]-acetamide] | – | – | 48.84 | 68.07 |
| CCN(CC)CCN(CCN(CC)CC)C(=O)COCC1Cc2ccccc2CN1S(=O)(=O)c1c(C)cc(C)cc1C (stereo not drawn) [Example 48, N,N-bis-(2-diethylamino-ethyl)-2-[2-(2,4,6-trimethyl-phenylsulfonyl)-1,2,3,4-tetra-hydro-isoquinolin-3-ylmethoxy]-acetamide] | 30.5 | 66.6 | – | – |
| Cc1cc(C)c(S(=O)(=O)N2Cc3ccccc3CC2COCC(=O)NCc2cccc(N3CCOCC3)c2)c(C)c1 (stereo not drawn) [Example 50, N-(3-morpholin-4-yl-benzyl)-2-[2-(2,4,6-trimethyl-phenylsulfonyl)-1,2,3,4-tetrahydro-isoquinolin-3-ylmethoxy]-acetamide] | 50.3 | 65.7 | – | – |
| O=C(COCC1Cc2ccccc2CN1S(=O)(=O)c1ccc(Cl)cc1Cl)N1CCCC1CN1CCCCC1 (stereo not drawn) [Example 51, 2-[2-(2,4-dichloro-phenylsulfonyl)-1,2,3,4-tetrahydro-isoquinolin-3-ylmethoxy]-1-(2-piperidin-1-ylmethyl-pyrrolidin-1-yl)-ethanone] | 87.9 | 65.1 | – | – |
| COc1ccc(S(=O)(=O)N2CCCCC2COCC(=O)N2CCC(CCN3CCCCC3)CC2)cc1 (stereo not drawn) [Example 52, 2-((1-(4-methoxyphenylsulfonyl)piperidin-2-yl)methoxy)-1-(4-(2-(piperidin-1-yl)-ethyl)piperidin-1-yl)ethanone] | 92.8 | 65 | – | – |
| O=C(COCC1CCCCN1S(=O)(=O)c1ccc(Cl)c(Cl)c1)N1CCC(Cc2ccccc2)CC1 (stereo not drawn) [Example 57, 1-(4-benzyl-piperidin-1-yl)-2-[1-(3,4-dichloro-phenylsulfonyl)-piperidin-2-ylmethoxy]-ethanone] | 0 | 62.4 | – | – |
| CN(C)CCCN1CCN(C(=O)COCC2CCCCN2S(=O)(=O)c2cccc(C(F)(F)F)c2)CC1 (stereo not drawn) [Example 58, 1-[4-(3-dimethylamino-propyl)-piperazin-1-yl]-2-[1-(3-trifluoromethyl-phenylsulfonyl)-piperidin-2-ylmethoxy]-ethanone] | 10.2 | 62.2 | – | – |
